From patent US6313177A, “D-mannitol derivatives as HIV aspartyl protease inhibitors” (Pharmacor Inc., priority 1999, dated 2001)

molecular target: T1, recombinant HIV-1 protease (Human immunodeficiency virus type 1 group M subtype B, UniProt P04585); experiment: Fluorometric (FRET) enzymatic assay for the inhibition constant (Ki) against the HIV protease; format: biochemical; details: not given
T1 construct: recombinant HIV-1 protease; purchased Bachem Bioscience
From the text: Enzymatic Assay for Determining the Inhibition Constant (Ki) of Synthetic Compounds Prepared Against the HIV Protease
This is a fluorometric assay based on the cleavage by protease of a substrate carrying a donor group (EDANS, excitation at 340 nm and emission at 490 nm) and an acceptor group (DABCYL) on each side of the cleavage site, interacting together through fluorescence resonance energy transfer (FRET). Cleavage of the substrate by protease stops energy exchange between the two groups, resulting in a time-dependent increase in fluorescence intensity that is linearly related to the extent of substrate hydrolysis.
The enzymatic assay is done at 30° C. in a spectrophotometer microcuvet, in a total volume of 400 μL. The apparatus used for readings is a UV-visible Cary 1 spectrophotometer made by Varian. The reaction is run first in the absence of protease inhibitors for 2 min, using 355 μL of buffer at pH 4.7 (sodium acetate 100 mM, NaCl 1 M, EDTA 1 mM, DTT 1 mM, dimethylsulfoxide 10%, and BSA 1 mg/mL), 40 μL of substrate H-2930 from Molecular Probes (final concentration 10 μM) and 5 μL of recombinant HIV-1 protease (final concentration 18.3 nM) purchased from Bachem Bioscience. Fluorescence readings at […] are taken continuously during the reaction, allowing determination of the enzyme's initial velocity (v0). At the end of the 2 min incubation, the potential inhibitor at a defined concentration in a volume of 2 μL is added to the reaction, and fluorescence readings are taken for another 2 min, allowing determination of enzyme velocity (vi) in the presence of the inhibitory compound. Several concentrations of the putative inhibitors are tested in the assay. After calculation of vo and vi, the inhibition constant (Ki) of the compound is determined using the equation of Henderson: [formula]
and [I]=inhibitor concentration, [S ]=substrate concentration, Km=Michaelis-Menten constant, Kiapp =apparent Ki
Note that the Michaelis-Menten constant of HIV protease is determined by running the assay without inhibitors, using several concentrations of substrate, and plotting the results as a Cornish-Bowden graph with the ratio substrate concentration/velocity as the ordinate and substrate concentration as the abscissa.

Structure (SMILES)	Ki
O[C@@H]([C@H](O)[C@@H](COCc1ccccc1)OCc1ccccc1)[C@@H](COCc1ccccc1)OCc1ccccc1 [Compound 1, 1,2,5,6-tetra-O-benzyl-D-mannitol]	2 µM

same assay, conditions: Table 1, benzylated D-mannitol derivatives; pH 4.7, 30° C., substrate 10 μM, protease 18.3 nM

Structure (SMILES)	Ki
N#Cc1ccc(CO[C@H](COCc2ccccc2)[C@@H](O)[C@H](O)[C@@H](COCc2ccccc2)OCc2ccc(C(N)=O)cc2)cc1 [Compound 60, 1,6-di-O-benzyl-2-O-(4-cyanobenzyl)-5-O-(4-carboxamidobenzyl)-D-mannitol]	13 µM
O[C@@H]([C@H](O)[C@@H](COCc1ccccc1)OCc1c(F)c(F)c(F)c(F)c1F)[C@@H](COCc1ccccc1)OCc1c(F)c(F)c(F)c(F)c1F [Compound 15, 1,6-di-O-benzyl-2,5-di-O-(pentafluorobenzyl)-D-mannitol]	> 5 µM
O[C@@H]([C@H](O)[C@@H](COCc1ccccc1F)OCc1ccc(Br)cc1)[C@@H](COCc1ccccc1F)OCc1ccc(Br)cc1 [Compound 34, 1,6-di-O-(2-fluorobenzyl)-2,5-di-O-(4-bromobenzyl)-D-mannitol]	1.9 µM
O[C@@H]([C@H](O)[C@@H](COCc1ccc(C(F)(F)F)cc1)OCc1ccccc1)[C@@H](COCc1ccc(C(F)(F)F)cc1)OCc1ccccc1 [Compound 27, 1,6-di-O-(4-trifluoromethylbenzyl)-2,5-di-O-benzyl-D-mannitol]	> 2 µM
O[C@@H]([C@H](O)[C@@H](COCc1ccccc1)OCc1ccc(C(F)(F)F)cc1)[C@@H](COCc1ccccc1)OCc1ccc(C(F)(F)F)cc1 [Compound 22, 1,6-di-O-benzyl-2,5-di-O-(4-trifluoromethylbenzyl)-D-mannitol]	10 µM
Oc1ccc(COC[C@@H](OCc2ccc(F)cc2)[C@@H](O)[C@H](O)[C@@H](COCc2ccc(OCc3ccccc3)cc2)OCc2ccc(F)cc2)cc1 [Compound 76, 1-O-(4-hydroxybenzyl)-6-O-(4-benzyloxybenzyl)-2,5-di-O-(4-fluorobenzyl)-D-mannitol]	0.9 µM
O[C@@H]([C@H](O)[C@@H](COCc1ccccc1F)OCc1ccccc1)[C@@H](COCc1ccccc1)OCc1ccccc1 [Compound 10, 1,2,5-tri-O-benzyl-6-O-(2-fluorobenzyl)-D-mannitol]	0.4 µM
O[C@@H]([C@H](O)[C@@H](COCc1ccc(Br)cc1)OCc1ccccc1)[C@@H](COCc1ccc(Br)cc1)OCc1ccccc1 [Compound 54, 1,6-di-O-(4-bromobenzyl)-2,5-di-O-benzyl-D-mannitol]	> 3 µM
COC(=O)c1ccc(CO[C@H](COCc2ccccc2)[C@@H](O)[C@H](O)[C@@H](COCc2ccccc2)OCc2ccc(C(=O)O)cc2)cc1 [Compound 59, 1,6-di-O-benzyl-2-O-(4-carboxybenzyl)-5-O-(4-carbomethoxybenzyl)-D-mannitol]	1.4 µM
O[C@@H]([C@H](O)[C@@H](COCc1ccccc1)OCc1ccc(Cl)cc1)[C@@H](COCc1ccccc1)OCc1ccc(Cl)cc1 [Compound 17, 1,6-di-O-benzyl-2,5-di-O-(4-chlorobenzyl)-D-mannitol]	2 µM
O[C@@H]([C@H](O)[C@@H](COCc1c(F)cccc1F)OCc1ccccc1)[C@@H](COCc1c(F)cccc1F)OCc1ccccc1 [Compound 35, 1,6-di-O-(2,6-difluorobenzyl)-2,5-di-O-benzyl-D-mannitol]	0.33 ± 0.05 µM

test system: not listed separately; experiment: Cytotoxicity (MTT assay / trypan blue exclusion test); format: cell-based; details: 7 or 10 days, 37° C., measure (IC50/CC50) not stated
Protocol: Two assays were performed to evaluate the potentiel toxicity of the compounds in infected cells:
1) Briefly, cells were grown in 96-well microtiter plates at 37° C. in complete culture medium in the presence of the compound to test. Control cells grown in the absence of the compound received the same amount of solvent used to dissolve the inhibitor (in this case, dimethylsulfoxide at a final concentration of 0.1 to 0.3%). After 7 or 10 days, MTT was added to the cultures for 4 hours at 37° C. as described in the literature (Schwartz et al., AIDS Res. Hum. Retrov. 4: 441-448, 1988; Mosmaun, J. Immunol. Meth., 65: 55-63, 1983) and the changes in absorbance associated with metabolism of MTT by viable cells was monitored with an ELISA microplate reader at a test wavelength of 540 nm.
2) The cells were grown as described above in 24-well microplates or 25-cm tissue culture flasks in the presence or absence of the tested compounds, and the cell viability after 7 or 10 days was determined by the trypan blue exclusion test, using a hemacytometer and a microscope at 100× magnification.

Structure (SMILES)	CC50
O[C@@H]([C@H](O)[C@@H](COCc1ccccc1)OCc1ccccc1)[C@@H](COCc1ccccc1)OCc1ccccc1 [Compound 1, 1,2,5,6-tetra-O-benzyl-D-mannitol]	15 µM
